Source: patent US9731027B2, “Somatostatin-dopamine chimeric analogs” (Ipsen Pharma S.A.S., priority 2012, dated 2017)
Read-outs that look alike come from different tables or passages of the source. Bridge positions count the residues as written; N and C are the ends. Square brackets hold non-standard residues; d marks the D form. Peptide text beside a SMILES is read from it. * marks the point of attachment. X2 = CN1C[C@H](CSCC(=O)*)C[C@@H]2c3cccc4[nH]cc(c34)C[C@H]21

How the values were obtained:
[1] = tested on: pituitary tumor cells of acromegalic patients presenting with macroadenoma; assay: Human pituitary adenoma cell growth hormone release assay; assay type: cell-based; conditions: 18 hours incubation, AlphaLISA GH immunoassay; FIG. 5
Method: FIG. 1 is a graph showing the Growth hormone suppressing activity of Compound 4 (see Table I hereinbelow for its chemical name and its corresponding structural representation) on pituitary tumor cells of acromegalic patients presenting with macroadenoma. Various concentrations of Compound 4 were added to the medium and the cells were incubated for 18 hours before measurement of Growth hormone levels in the medium using the AlphaLISA Growth Hormone Immunoassay Research kit (PerkinElmer).
Various concentrations of Compounds 4 and 5 were added to the medium and the cells were incubated for 18 hours before measurement of Growth hormone levels in the medium using the AlphaLISA Growth Hormone Immunoassay Research kit (PerkinElmer).
Acromegalic patients presenting with macroadenoma underwent transsphenoidal surgery and a portion of each tumor obtained at surgery was dissociated by enzymatic and mechanical methods. The cells were cultured in DMEM medium supplemented with 10% FBS and antibiotics for 3 days. The cells were then plated in multi-well tissue culture dishes coated with extracellular matrix from bovine endothelial corneal cells at a density of 3-5×10^4 cells/well in DMEM supplemented with 10% FBS and antibiotics. After 2-3 days of culture, the medium was changed to DMEM supplemented with 1% FBS, antibiotics and 1% ITS (insulin, transferrin and selenium).

hSSTR2 [2] = target: T1, hSSTR2 (Homo sapiens, UniProt P30874); assay: Somatostatin receptor radioligand binding assay, hSSTR2
T1 construct: host or cells: 'Cells expressing hSSTR2'
Method: The affinities of a test compound for the human somatostatin receptors were determined by radioligand binding assays in CHO-K1 cells stably transfected with each of the human somatostatin receptor subtypes, hSSTR1-5. The cDNA coding sequences of hSSTR1 (GenBank accession No. NM_001049.1), hSSTR2 (GenBank accession No. XM_012697.1), hSSTR3 (GenBank accession No. XM_009963.1), hSSTR4 (GenBank accession No. NM_001052.1), and hSSTR5 (GenBank accession No. XM_012565.1) were subcloned into the mammalian expression vector pcDNA3.1 (Life Technologies). Clonal cell lines stably expressing each of the somatostatin receptors were obtained by transfection into CHO-K1 cells (ATCC) and subsequently selected with culture media containing 0.8 mg/mL of G418 (Life Technologies).
Membranes for in vitro receptor binding assays were obtained by the following procedures. […] The supernatant containing the plasma membranes was centrifuged at 100,000×g for 30 minutes and the pellet was resuspended in buffer containing 20 mM glycine-glycine, 1 mM MgCl2, 250 mM sucrose, pH 7.2, for storage at −80° C. […]

hSSTR2 [3] = target: T1, hSSTR2; assay: Intracellular calcium mobilization assay (FLIPR Calcium 4), hSSTR2; assay type: cell-based
Method: The ability of select compounds according to the present invention to activate hSSTR2 and hDRD2 was determined by the intracellular calcium mobilization assay using FLIPR Calcium 4 assay kit (Molecular Devices).
Cells expressing hSSTR2 or hDRD2 were plated in 384-well microplates in tissue culture media and incubated for 16-24 hours at 37° C. in a humidified atmosphere with 5% CO2. Medium was replaced by loading buffer containing Hank's buffered saline, 20 mM HEPES, 2.5 mM probenecid and Calcium 4 dye, and the plates were incubated at 37° C. for 60 minutes.

T1 sequence (P30874 whole entry): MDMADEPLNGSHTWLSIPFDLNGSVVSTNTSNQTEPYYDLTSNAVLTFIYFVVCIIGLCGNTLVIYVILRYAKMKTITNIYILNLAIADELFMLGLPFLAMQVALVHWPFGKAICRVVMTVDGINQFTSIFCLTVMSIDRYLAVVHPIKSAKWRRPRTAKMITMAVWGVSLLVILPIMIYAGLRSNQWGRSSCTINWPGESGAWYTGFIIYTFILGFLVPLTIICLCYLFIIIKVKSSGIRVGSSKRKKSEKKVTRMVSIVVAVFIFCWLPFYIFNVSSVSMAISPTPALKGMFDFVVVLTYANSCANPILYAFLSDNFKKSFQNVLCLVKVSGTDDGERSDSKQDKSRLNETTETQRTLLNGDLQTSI

**Q.** With `C[C@@H](O)[C@@H]1NC(=O)[C@H](CCCCN)NC(=O)[C@@H](Cc2c[nH]c3ccccc23)NC(=O)[C@H](Cc2ccncc2)NC(=O)[C@H](Cc2ccccc2)NC(=O)[C@H](CCCNC(=N)N)NC(=O)[C@H](NC[C@H](Cc2ccc(O)cc2)NC(=O)CSC[C@@H]2C[C@@H]3c4cccc5[nH]cc(c45)C[C@H]3N(C)C2)CCCCNC(=O)[C@H](Cc2ccccc2)NC1=O` [Compound 4, Dop1-Tyr-psi(CH2NH)-cyclo(DLys-Arg-Phe-4Pal-DTrp-Lys-Thr-Phe)] as the compound, how does the “Growth hormone suppressing activity compared to the parent somatostatin analogs” value [1] read?
**A.** enhanced Growth hormone suppressing activity

**Q.** For `C[C@@H](O)[C@@H]1NC(=O)[C@H](CCCCN)NC(=O)[C@@H](Cc2c[nH]c3ccccc23)NC(=O)[C@H](Cc2ccccc2)NC(=O)[C@H](Cc2ccccc2)NC(=O)[C@H](CCCNC(=N)N)NC(=O)[C@H](NC[C@H](Cc2ccc(O)cc2)NC(=O)CSC[C@@H]2C[C@@H]3c4cccc5[nH]cc(c45)C[C@H]3N(C)C2)CCCCNC(=O)[C@H](Cc2ccc(F)cc2)NC1=O` [Compound 5, Dop1-Tyr-psi(CH2NH)-cyclo(DLys-Arg-Phe-Phe-DTrp-Lys-Thr-4FPhe)], which “Growth hormone suppressing activity compared to the parent somatostatin analogs” value [1] is on record?
**A.** enhanced Growth hormone suppressing activity

**Q.** Which results are given for `C[C@@H](O)[C@@H]1NC(=O)[C@H](CCCCN)NC(=O)[C@@H](Cc2c[nH]c3ccccc23)NC(=O)[C@H](Cc2ccccc2)NC(=O)[C@H](Cc2ccccc2)NC(=O)[C@H](CCCNC(=N)N)NC(=O)[C@@H](NC[C@H](Cc2ccc(O)cc2)NC(=O)CSC[C@@H]2C[C@@H]3c4cccc5[nH]cc(c45)C[C@H]3N(C)C2)CCCNC(=O)[C@H](Cc2ccccc2)NC1=O` [Compound 43, Dop1-Tyr-psi(CH2NH)-cyclo(Orn-Arg-Phe-Phe-DTrp-Lys-Thr-Phe)]?
**A.** Ki (hSSTR2 [2]): 1.07 ± 0.39 nM; EC50 (hSSTR2 [3]): 31.6 ± 4.3 nM

**Q.** With `C[C@@H](O)[C@@H]1NC(=O)[C@H](CCCCN)NC(=O)[C@@H](Cc2c[nH]c3ccccc23)NC(=O)[C@H](Cc2ccccc2)NC(=O)[C@H](Cc2ccccc2)NC(=O)[C@H](CCCNC(=N)N)NC(=O)[C@H](NC(=O)CSC[C@@H]2C[C@@H]3c4cccc5[nH]cc(c45)C[C@H]3N(C)C2)CCCCNC(=O)[C@H](Cc2ccccc2)NC1=O` [Compound 44, Dop1-cyclo(DLys-Arg-Phe-Phe-DTrp-Lys-Thr-Phe)] (X2-[dK]RFF[dW]KTF; lactam 1-C) as the compound, how does the Emax (hSSTR2 [3]; read-out: hSSTR2 % Emax ± SEM) read?
**A.** 97.1 ± 5.9%

**Q.** `C[C@@H](O)[C@@H]1NC(=O)[C@H](CCCCN)NC(=O)[C@@H](Cc2c[nH]c3ccccc23)NC(=O)[C@H](Cc2ccc(O)cc2)NC(=O)[C@H](Cc2ccncc2)NC(=O)[C@H](CCCNC(=N)N)NC(=O)[C@H](NC[C@@H](Cc2ccc(O)cc2)NC(=O)CSC[C@@H]2C[C@@H]3c4cccc5[nH]cc(c45)C[C@H]3N(C)C2)CCCCNC(=O)[C@H](Cc2ccccc2)NC1=O` [Compound 46, Dop1-DTyr-psi(CH2NH)-cyclo(DLys-Arg-4Pal-Tyr-DTrp-Lys-Thr-Phe)] was tested. Which Ki (hSSTR2 [2]; CHO-K1 membranes, [125I-Tyr]-seglitide, read-out: hSSTR2 Ki (nM) ± SEM) did it give?
**A.** 0.52 ± 0.06 nM

**Q.** What about the EC50 (hSSTR2 [3]; calcium mobilization, cells expressing hSSTR2, read-out: hSSTR2 EC50 (nM) ± SEM) of the same compound?
**A.** 60 nM
